Each structure is given as a SMILES string. Entries after “also recorded” stand apart in the source; their conditions may differ. Where a SMILES comes first, the peptide text is derived from it.

The target in test [1] is T1, human leukocyte cathepsin G (hCG) (Homo sapiens, UniProt P08311).
T1 construct: Neutrophils (1.4 billion) were isolated from whole blood obtained from a single healthy laboratory donor; from tissue; host or cells: neutrophils from whole blood of a single healthy donor
T1 sequence (P08311 21-243 limits assumed): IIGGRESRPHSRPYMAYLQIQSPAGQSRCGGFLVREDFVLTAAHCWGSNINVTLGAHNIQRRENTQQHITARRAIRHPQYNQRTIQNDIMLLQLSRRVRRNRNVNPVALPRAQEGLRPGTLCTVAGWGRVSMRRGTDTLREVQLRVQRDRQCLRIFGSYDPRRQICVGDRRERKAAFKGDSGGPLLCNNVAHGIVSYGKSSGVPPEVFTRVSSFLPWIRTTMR
Put plainly: In vitro inhibition of hCG (cleavage of Suc-AAPF-NA). It is filed as biochemical. As for the experimental part:
(§1) The enzymatic activity was assayed with MeOSuc-AAPV-NA for hLE determination and Suc-AAPF-NA for hCG determination (both in 100 mM Hepes buffer, pH 7.4, containing 0.05% of the […] detergent Brij-35). The activities of the individual enzymatic fractions were 100% free from cross-contamination. […] The fractions containing hLE and hCG were dialyzed each against 0.1% pyridinium acetate, pH 5.3, divided into 20 aliquots, lyophilized, and stored at −20 ° C. until use.
vi) Inhibition experiments with hCG: Similar conditions to hLE inhibition experiments were used except the substrate: 80 μL of 1.80 mM Suc-AAPF-NA. The enzyme was dissolved in 800 μL buffer, and the reaction was monitored every 6 min for 1 hour. The final volume was 240 μL containing: 5% DMSO, 1-100 μM peptide, 600 μM substrate, and 1.2 μg enzyme (about 40 picomol).
For hCG, V is determined by fitting a quadratic equation to the total kinetic data (60 min), using the least squares method and calculating V at t=0.
The hCG inhibitory capability of CRP-derived peptides was evaluated by inhibiting the enzymatic cleavage of Suc-AAPF-NA as described in Materials and Methods (section vi).

In test [2] the target is T2, human leukocyte elastase (hLE) (Homo sapiens, UniProt P08246).
T2 construct: Neutrophils (1.4 billion) were isolated from whole blood obtained from a single healthy laboratory donor; from tissue; host or cells: neutrophils from whole blood of a single healthy donor
T2 sequence (P08246 30-247 limits assumed): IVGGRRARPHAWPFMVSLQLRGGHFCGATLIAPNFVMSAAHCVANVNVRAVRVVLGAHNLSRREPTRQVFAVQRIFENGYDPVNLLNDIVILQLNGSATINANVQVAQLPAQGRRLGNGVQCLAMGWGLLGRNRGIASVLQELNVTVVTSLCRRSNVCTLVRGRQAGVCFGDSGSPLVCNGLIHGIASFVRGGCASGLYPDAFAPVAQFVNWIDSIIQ
The experiment in a line: In vitro inhibition of hLE (cleavage of MeOSuc-AAPV-NA). The following applies: for fold decrease in hLE inhibitory activity compared to peptide 6: relative to peptide 6. It is filed as biochemical. As for the experimental part:
as §1
(v) Inhibition experiments with hLE: Peptides were dissolved in 100 mM Hepes buffer pH 7.4 containing 0.1% Brij-35 with 10%. DMSO to yield 300 μM solutions, which were used to make further dilutions with the same buffer, and 80 μL aliquots were added in duplicates to 96-well plates. The substrate, 600 μM MeOSuc-AAPV-NA in the same buffer with 5% DMSO, was added to each well in addition to the blank wells, and the plate was placed in the plate reader equilibrated to 37 C (Dynateck MR-6000). Lyophilized aliquots of hLE were dissolved in 1600 μL of 100 mM Hepes buffer without DMSO, and 80 μL of the enzyme solution was added to the peptides and substrate to initiate the reaction. […] The final volume was 240 μL containing: 5% DMSO, 1-100 μM of peptide, 200 μM substrate, and 0.75 μg (˜25 picomol) enzyme.
(viii) Calculations: For hLE, V is determined by fitting a linear equation to the first 6 time-points (10 min) of the kinetics data using the least squares method. […] Several inhibitor concentration in duplicates and two control wells were used to fit a linear equation to graphs of Vo/Vi−1 vs. [I] for each inhibitor using the least squares method (8 data points for each inhibitor). From calculating the error in the slope of the equation, the relative error for Ki was deduced:
Ki={slope*(1+[S]/Km)}^−1because Ki=[I]*{(1+[S]/Km)*(Vo/Vi−1)}^−1.
The hLE inhibitory capability of CRP-derived peptides was evaluated by inhibiting the enzymatic cleavage of MeOSuc-AAPV-NA as described in Materials and Methods (section v).

[3] abbreviates: hCG Ki [μM], Table 1, substrate Suc-AAPF-NA 600 μM, pH 7.4.
Where [4] appears, read: hLE Ki [μM], Table 1, substrate MeOSuc-AAPV-NA 200 μM, pH 7.4, 37 C.
Setting [5] is: hLE Ki [μM], Table 2, substrate MeOSuc-AAPV-NA 200 μM, pH 7.4, 37 C.

On to `CC[C@H](C)[C@H](NC(=O)[C@H](CO)NC(=O)[C@H](Cc1ccc(O)cc1)NC(=O)CNC(=O)[C@H](CCCNC(=N)N)NC(=O)[C@@H](NC(=O)[C@H](CO)NC(=O)[C@H](CO)NC(=O)[C@H](CC(C)C)NC(=O)[C@H](CCC(=O)O)NC(=O)[C@@H](NC(=O)[C@H](Cc1ccc(O)cc1)NC(=O)[C@H](Cc1ccccc1)NC(=O)[C@H](Cc1c[nH]cn1)NC(=O)[C@@H](N)CC(C)C)[C@@H](C)O)[C@@H](C)O)C(=O)O` [Peptide 1, Leu-His-Phe-Tyr-Thr-Glu-Leu-Ser-Ser-Thr-Arg-Gly-Tyr-Ser-Ile] (H-LHFYTELSSTRGYSI-OH), for which the Ki in test [1] (setting [3]) and in test [2] (setting [4]) was over 200 µM each time.

As for `CC[C@H](C)[C@H](NC(=O)[C@H](CO)NC(=O)[C@H](Cc1ccc(O)cc1)NC(=O)CNC(=O)[C@H](CCCNC(=N)N)NC(=O)[C@@H](NC(=O)[C@H](CO)NC(=O)[C@H](CO)NC(=O)[C@H](CC(C)C)NC(=O)[C@@H](N)CCC(=O)O)[C@@H](C)O)C(=O)N[C@@H](Cc1ccccc1)C(=O)N[C@@H](CO)C(=O)N[C@@H](Cc1ccc(O)cc1)C(=O)N[C@@H](C)C(=O)N[C@H](C(=O)O)[C@@H](C)O` [Peptide 2, Glu-Leu-Ser-Ser-Thr-Arg-Gly-Tyr-Ser-Ile-Phe-Ser-Tyr-Ala-Thr] (H-ELSSTRGYSIFSYAT-OH), the inhibition constant (Ki) in test [1] (setting [3]) and in test [2] (setting [4]) was over 200 µM in each case.

Regarding `CC[C@H](C)[C@H](NC(=O)[C@H](CO)NC(=O)[C@H](Cc1ccc(O)cc1)NC(=O)CNC(=O)[C@@H](N)CCCNC(=N)N)C(=O)N[C@@H](Cc1ccccc1)C(=O)N[C@@H](CO)C(=O)N[C@@H](Cc1ccc(O)cc1)C(=O)N[C@@H](C)C(=O)N[C@H](C(=O)N[C@@H](CCCCN)C(=O)N[C@@H](CCCNC(=N)N)C(=O)N[C@@H](CCC(N)=O)C(=O)N[C@@H](CC(=O)O)C(=O)N[C@@H](CC(N)=O)C(=O)O)[C@@H](C)O` [Peptide 3, Arg-Gly-Tyr-Ser-Ile-Phe-Ser-Tyr-Ala-Thr-Lys-Arg-Gln-Asp-Asn] (H-RGYSIFSYATKRQDN-OH), the Ki in test [1] (setting [3]) and in test [2] (setting [4]) was over 200 µM each time.

On to `CC[C@H](C)[C@H](NC(=O)[C@H](CC(C)C)NC(=O)[C@@H](NC(=O)[C@H](CCC(=O)O)NC(=O)[C@H](CC(N)=O)NC(=O)[C@H](CC(=O)O)NC(=O)[C@H](CCC(N)=O)NC(=O)[C@H](CCCNC(=N)N)NC(=O)[C@H](CCCCN)NC(=O)[C@@H](NC(=O)[C@H](C)NC(=O)[C@H](Cc1ccc(O)cc1)NC(=O)[C@H](CO)NC(=O)[C@@H](N)Cc1ccccc1)[C@@H](C)O)[C@@H](C)CC)C(=O)N[C@@H](Cc1ccccc1)C(=O)O` [Peptide 4, Phe-Ser-Tyr-Ala-Thr-Lys-Arg-Gln-Asp-Asn-Glu-Ile-Leu-Ile-Phe] (H-FSYATKRQDNEILIF-OH), for which the inhibitory constant (Ki) in test [1] (setting [3]) and in test [2] (setting [4]) was over 200 µM throughout.

Take `CC[C@H](C)[C@H](NC(=O)[C@H](CC(=O)O)NC(=O)[C@H](CCCCN)NC(=O)[C@H](CO)NC(=O)[C@H](Cc1c[nH]c2ccccc12)NC(=O)[C@H](Cc1ccccc1)NC(=O)[C@@H](NC(=O)[C@H](CC(C)C)NC(=O)[C@@H](NC(=O)[C@H](CCC(=O)O)NC(=O)[C@H](CC(N)=O)NC(=O)[C@H](CC(=O)O)NC(=O)[C@H](CCC(N)=O)NC(=O)[C@H](CCCNC(=N)N)NC(=O)[C@@H](N)CCCCN)[C@@H](C)CC)[C@@H](C)CC)C(=O)O` [Peptide 5, Lys-Arg-Gln-Asp-Asn-Glu-Ile-Leu-Ile-Phe-Trp-Ser-Lys-Asp-Ile] (H-KRQDNEILIFWSKDI-OH; N-terminus and C-terminus assumed): the figures for the Ki in test [1] (hCG inhibitory activity range) and in test [2] (hLE inhibitory activity range) were 150 to 200 µM and 50 to 100 µM, respectively. For the same compound, the “hLE inhibitory activity (in words)” value in test [2] is reported as “two orders of magnitude less potent than peptide 6; also recorded: lowered the inhibitory capability by more than one order of magnitude”.

For the compound `CC[C@H](C)[C@H](NC(=O)[C@H](CC(=O)O)NC(=O)[C@H](CCCCN)NC(=O)[C@H](CO)NC(=O)[C@H](Cc1c[nH]c2ccccc12)NC(=O)[C@H](Cc1ccccc1)NC(=O)[C@@H](NC(=O)[C@H](CC(C)C)NC(=O)[C@@H](NC(=O)[C@@H](N)CC(=O)O)[C@@H](C)CC)[C@@H](C)CC)C(=O)NCC(=O)N[C@@H](Cc1ccc(O)cc1)C(=O)N[C@@H](CO)C(=O)N[C@@H](Cc1ccccc1)C(=O)N[C@H](C(=O)O)[C@@H](C)O` [Peptide 18, Asp-Ile-Leu-Ile-Phe-Trp-Ser-Lys-Asp-Ile-Gly-Tyr-Ser-Phe-Thr] (H-DILIFWSKDIGYSFT-OH; N-terminus and C-terminus assumed), the “fold decrease in hLE inhibitory activity compared to peptide 6” value in test [2] stood at 10 fold.

As to `CC[C@H](C)[C@H](NC(=O)[C@H](CC(=O)O)NC(=O)[C@H](CCCCN)NC(=O)[C@@H]1CCCN1C(=O)[C@H](Cc1c[nH]c2ccccc12)NC(=O)[C@H](Cc1ccccc1)NC(=O)[C@@H](NC(=O)[C@H](CC(C)C)NC(=O)[C@@H](NC(=O)[C@@H](N)CCC(=O)O)[C@@H](C)CC)[C@@H](C)CC)C(=O)NCC(=O)N[C@@H](Cc1ccc(O)cc1)C(=O)N[C@@H](CO)C(=O)N[C@@H](Cc1ccccc1)C(=O)N[C@H](C(=O)O)[C@@H](C)O` [Peptide 19, Glu-Ile-Leu-Ile-Phe-Trp-Pro-Lys-Asp-Ile-Gly-Tyr-Ser-Phe-Thr] (H-EILIFWPKDIGYSFT-OH; N-terminus and C-terminus assumed), in test [2], the “hLE inhibitory activity (in words)” value is recorded as “two orders of magnitude loss of inhibitory activity”. Moreover, the Ki in test [2] (setting [5]) is over 200 µM.

As to `CC[C@H](C)[C@H](NC(=O)CNC(=O)[C@H](Cc1ccc(O)cc1)NC(=O)[C@H](CO)NC(=O)[C@H](Cc1ccccc1)NC(=O)[C@@H](N)[C@@H](C)O)C(=O)N[C@@H](CC(=O)O)C(=O)N[C@@H](CCCCN)C(=O)N[C@@H](CO)C(=O)N[C@@H](Cc1c[nH]c2ccccc12)C(=O)N[C@@H](Cc1ccccc1)C(=O)N[C@H](C(=O)N[C@@H](CC(C)C)C(=O)N[C@H](C(=O)N[C@@H](CCC(=O)O)C(=O)O)[C@@H](C)CC)[C@@H](C)CC` [Peptide 24, Thr-Phe-Ser-Tyr-Gly-Ile-Asp-Lys-Ser-Trp-Phe-Ile-Leu-Ile-Glu] (H-TFSYGIDKSWFILIE-OH; N-terminus and C-terminus assumed), the “fold decrease in hLE inhibitory activity compared to peptide 6” value in test [2] came out at 30 fold.

With `CC[C@H](C)[C@H](NC(=O)[C@H](CC(=O)O)NC(=O)[C@H](C)NC(=O)[C@H](CO)NC(=O)[C@H](Cc1c[nH]c2ccccc12)NC(=O)[C@H](Cc1ccccc1)NC(=O)[C@@H](NC(=O)[C@H](CC(C)C)NC(=O)[C@@H](NC(=O)[C@@H](N)CCC(=O)O)[C@@H](C)CC)[C@@H](C)CC)C(=O)O` [Peptide 25, Glu-Ile-Leu-Ile-Phe-Trp-Ser-Ala-Asp-Ile] (H-EILIFWSADI-OH; N-terminus and C-terminus assumed), the “hLE inhibitory activity (in words)” value in test [2] was “slightly more potent than peptide 14”. In addition, in test [2] (setting [5]), the Ki was 3 ± 0.5 µM.

For `CC[C@H](C)[C@H](NC(=O)[C@H](CC(=O)O)NC(=O)[C@@H](NC(=O)[C@H](CO)NC(=O)[C@H](Cc1c[nH]c2ccccc12)NC(=O)[C@H](Cc1ccccc1)NC(=O)[C@@H](NC(=O)[C@H](CC(C)C)NC(=O)[C@@H](NC(=O)[C@@H](N)CCC(=O)O)[C@@H](C)CC)[C@@H](C)CC)C(C)C)C(=O)O` [Peptide 26, Glu-Ile-Leu-Ile-Phe-Trp-Ser-Val-Asp-Ile] (H-EILIFWSVDI-OH; N-terminus and C-terminus assumed), the “hLE inhibitory activity (in words)” value in test [2] was “slightly more potent than peptide 14”.

As a reminder, the Ki is a dissociation constant, usually derived from enzyme kinetics or from competition with a known ligand. A high value points to a looser hold on the target.

(Values after US6528618B1, “Anti-inflammatory peptides derived from C-reactive protein” (Yeda Research and Development Co. Ltd., priority 1997, dated 2003).)
